What was measured:
Type in all cases: biochemical
Human DPP 9 = target: T1, Human DPP 9 (Homo sapiens, UniProt Q86TI2); test: DPP 9 activity screening (Ala-Pro-AMC fluorescence); settings: N.I. = No Inhibition
T1 construct: made in house; host or cells: insect cells, baculovirus Bac-to-Bac
Excerpt: (§1) Screening method: dipeptidyl peptidase IV (DPP IV) activity screening, dipeptidyl peptidase 7 (DPP 7), dipeptidyl peptidase 8 (DPP 8) activity screening, and dipeptidyl peptidase 9 (DPP 9) activity screening.
(§2) Materials: human DPP IV, obtained extracellular fragment of protease DPP IV (aa29-766), was expressed and purified by our laboratory using baculovirus expression system Bac-to-Bac (purchased from GIBCO company) in accordance with the conventional experimental technology; human DPP 8 was obtained in insect cells by our laboratory using baculovirus expression system Bac-to-Bac (purchased from GIBCO company) in accordance with the conventional experimental technology; Human DPP 9 was obtained in insect cells by our laboratory using baculovirus expression system Bac-to-Bac (purchased from GIBCO company) in accordance with the conventional experimental technology; and the substrate Ala-Pro-AMC was synthesized by GL Biochem (Shanghai) Ltd.
(§3) Principle of Activity test: DPP IV, DPP 8 and DPP 9 can specifically hydrolyze the substrate Ala-Pro-AMC to form product AMC, and AMC is excited by 355 nm of UV light to generate 460 nm of emission light. The linear change of fluorescence value at 460 nm in unit time was dynamically measured and DPP IV activity was obtained by calculation.
(§4) Sample treatment: the sample was dissolved in DMSO and stored in low temperature. The concentration of DMSO in the final system was controlled so that the detected activity was not affected.
(§5) The activity of sample was tested under the selected single concentration from preliminary screening, for example, 20 μg/mL. […] The software for calculation was Graphpad Prism 4 and the model used for fitting was sigmoidal dose-response (variable slope). For most inhibitor screening models, the bottom and top of the fitting curve were set to 0 and 100.

[1] = target: dipeptidyl peptidase 7 (DPP 7) (Homo sapiens, UniProt Q9UHL4); test: DPP 7 activity screening; settings: N.I. = No Inhibition
Description: as §1, §4, §5

human DPP IV = target: T2, human DPP IV (Homo sapiens, UniProt P27487); test: DPP IV activity screening (Ala-Pro-AMC fluorescence)
T2 construct: extracellular fragment of protease DPP IV (aa29-766); made in house; host or cells: baculovirus expression system Bac-to-Bac
Description: as §1
Instruments: Microplate Reader (PerkinElmer, USA).
The linear change of fluorescence value at 460 nm in unit time was dynamically measured and DPP IV activity was obtained by calculation.
as §4, §5

human DPP 8 = target: T3, human DPP 8 (Homo sapiens, UniProt Q6V1X1); test: DPP 8 activity screening (Ala-Pro-AMC fluorescence); settings: N.I. = No Inhibition
T3 construct: made in house; host or cells: insect cells, baculovirus Bac-to-Bac
Excerpt: as §1, §2, §3, §4, §5

FAP = target: T4, FAP (Homo sapiens, UniProt Q12884); test: FAP inhibition (Table 1); settings: N.I. = No Inhibition
T4 sequence (Q12884 1-760): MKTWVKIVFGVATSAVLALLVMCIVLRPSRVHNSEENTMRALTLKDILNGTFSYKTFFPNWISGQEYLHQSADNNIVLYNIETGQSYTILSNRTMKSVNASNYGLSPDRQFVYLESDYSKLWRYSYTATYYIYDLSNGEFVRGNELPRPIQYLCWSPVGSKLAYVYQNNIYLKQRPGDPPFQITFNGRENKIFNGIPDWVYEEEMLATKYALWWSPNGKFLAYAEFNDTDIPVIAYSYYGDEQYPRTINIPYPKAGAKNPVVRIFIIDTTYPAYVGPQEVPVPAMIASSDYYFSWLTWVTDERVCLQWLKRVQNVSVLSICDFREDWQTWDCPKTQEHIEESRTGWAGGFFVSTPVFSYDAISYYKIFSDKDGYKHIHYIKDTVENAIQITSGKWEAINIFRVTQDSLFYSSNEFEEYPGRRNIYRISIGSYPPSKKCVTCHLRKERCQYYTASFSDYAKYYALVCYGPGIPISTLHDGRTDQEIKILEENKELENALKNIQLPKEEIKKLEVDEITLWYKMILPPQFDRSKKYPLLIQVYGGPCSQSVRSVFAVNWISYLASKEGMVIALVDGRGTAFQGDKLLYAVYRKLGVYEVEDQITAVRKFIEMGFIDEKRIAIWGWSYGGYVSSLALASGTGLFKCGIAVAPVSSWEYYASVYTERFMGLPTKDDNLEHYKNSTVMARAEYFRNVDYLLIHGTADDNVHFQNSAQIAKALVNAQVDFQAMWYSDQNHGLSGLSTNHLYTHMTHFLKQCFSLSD

T2 sequence (P27487 29-766): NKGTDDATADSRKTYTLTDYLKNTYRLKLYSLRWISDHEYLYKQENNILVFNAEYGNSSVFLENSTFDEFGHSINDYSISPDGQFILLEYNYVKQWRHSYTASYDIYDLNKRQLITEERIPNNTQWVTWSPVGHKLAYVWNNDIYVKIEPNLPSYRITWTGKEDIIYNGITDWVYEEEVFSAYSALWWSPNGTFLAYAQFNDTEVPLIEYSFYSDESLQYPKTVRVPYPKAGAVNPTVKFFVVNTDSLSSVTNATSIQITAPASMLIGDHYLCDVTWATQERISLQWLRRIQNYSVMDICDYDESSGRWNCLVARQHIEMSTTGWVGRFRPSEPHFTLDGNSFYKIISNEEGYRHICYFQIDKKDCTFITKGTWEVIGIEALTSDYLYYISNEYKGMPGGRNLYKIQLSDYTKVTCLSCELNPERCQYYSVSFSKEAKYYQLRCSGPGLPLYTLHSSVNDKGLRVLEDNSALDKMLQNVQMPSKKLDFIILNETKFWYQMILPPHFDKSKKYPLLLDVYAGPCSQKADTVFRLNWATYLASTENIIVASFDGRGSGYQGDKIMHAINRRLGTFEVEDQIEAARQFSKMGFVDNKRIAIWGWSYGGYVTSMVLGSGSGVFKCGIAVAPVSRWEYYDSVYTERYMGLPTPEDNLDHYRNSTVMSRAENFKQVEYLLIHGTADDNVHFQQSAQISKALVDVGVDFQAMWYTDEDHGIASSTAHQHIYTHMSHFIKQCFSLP
T1 sequence (Q86TI2 whole entry): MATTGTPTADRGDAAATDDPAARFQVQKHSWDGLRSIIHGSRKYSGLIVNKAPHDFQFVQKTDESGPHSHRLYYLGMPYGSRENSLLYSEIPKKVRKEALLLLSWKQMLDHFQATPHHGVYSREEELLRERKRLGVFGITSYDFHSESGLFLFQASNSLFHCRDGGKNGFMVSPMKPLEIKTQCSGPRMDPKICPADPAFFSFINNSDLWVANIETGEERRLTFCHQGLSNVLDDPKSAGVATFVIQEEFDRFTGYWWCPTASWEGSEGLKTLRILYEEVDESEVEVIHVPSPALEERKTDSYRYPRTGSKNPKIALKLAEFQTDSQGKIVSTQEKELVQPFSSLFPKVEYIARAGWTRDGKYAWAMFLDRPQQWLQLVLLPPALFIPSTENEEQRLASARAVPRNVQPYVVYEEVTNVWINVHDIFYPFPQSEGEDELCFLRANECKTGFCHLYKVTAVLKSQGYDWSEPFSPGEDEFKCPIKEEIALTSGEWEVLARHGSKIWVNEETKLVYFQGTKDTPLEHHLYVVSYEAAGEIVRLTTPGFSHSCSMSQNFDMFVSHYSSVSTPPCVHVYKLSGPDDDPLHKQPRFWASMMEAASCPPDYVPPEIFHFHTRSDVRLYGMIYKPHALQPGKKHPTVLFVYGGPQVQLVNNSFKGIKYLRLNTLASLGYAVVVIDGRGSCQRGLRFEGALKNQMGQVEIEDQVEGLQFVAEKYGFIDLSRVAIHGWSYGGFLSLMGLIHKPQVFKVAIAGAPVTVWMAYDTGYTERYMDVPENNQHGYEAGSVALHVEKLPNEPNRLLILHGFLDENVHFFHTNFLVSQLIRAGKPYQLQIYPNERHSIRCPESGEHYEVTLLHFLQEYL
T3 sequence (Q6V1X1 whole entry): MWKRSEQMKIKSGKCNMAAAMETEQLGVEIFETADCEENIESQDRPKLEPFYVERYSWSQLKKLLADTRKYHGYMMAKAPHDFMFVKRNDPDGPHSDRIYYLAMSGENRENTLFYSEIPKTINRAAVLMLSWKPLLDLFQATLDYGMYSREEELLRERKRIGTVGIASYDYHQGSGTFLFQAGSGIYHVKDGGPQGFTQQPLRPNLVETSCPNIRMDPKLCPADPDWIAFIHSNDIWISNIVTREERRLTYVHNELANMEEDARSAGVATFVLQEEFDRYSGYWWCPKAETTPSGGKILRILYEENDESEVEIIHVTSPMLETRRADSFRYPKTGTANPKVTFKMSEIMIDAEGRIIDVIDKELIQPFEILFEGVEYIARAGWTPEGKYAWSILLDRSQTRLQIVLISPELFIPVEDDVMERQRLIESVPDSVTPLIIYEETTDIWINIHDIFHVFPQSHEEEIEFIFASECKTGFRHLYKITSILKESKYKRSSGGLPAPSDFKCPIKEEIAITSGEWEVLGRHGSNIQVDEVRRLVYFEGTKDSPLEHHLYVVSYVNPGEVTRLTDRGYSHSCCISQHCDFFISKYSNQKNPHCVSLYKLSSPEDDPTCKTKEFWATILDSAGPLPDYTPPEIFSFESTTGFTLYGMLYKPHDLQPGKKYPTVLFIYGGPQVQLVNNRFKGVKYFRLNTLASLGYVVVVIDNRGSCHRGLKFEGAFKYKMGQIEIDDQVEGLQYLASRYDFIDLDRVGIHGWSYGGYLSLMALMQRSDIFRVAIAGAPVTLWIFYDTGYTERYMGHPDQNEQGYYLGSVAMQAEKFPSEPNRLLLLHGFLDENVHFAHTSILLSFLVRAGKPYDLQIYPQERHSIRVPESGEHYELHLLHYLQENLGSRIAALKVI

| SMILES | IC50 (Human DPP 9) [µM] | DPP 7 IC50 [1] | IC50 (human DPP IV) [µM] | IC50 (human DPP 8) [µM] | IC50 (FAP) [µM] | DPP 9 IC50 (Human DPP 9) | DPP 8 IC50 (human DPP 8) | FAP IC50 (FAP) | IC50 [1] [µM] |
| --- | --- | --- | --- | --- | --- | --- | --- | --- | --- |
| N#Cc1ccccc1Cn1c(N2CCC[C@@H](N)C2)nc2c(C(=O)NC3CC3)csc2c1=O [Compound 65, (R)-2-(3-aminopiperidin-1-yl)-3-(2-cyanobenzyl)-N-cyclopropyl-4-oxo-3,4-dihydrothieno[3,2-d]pyrimidine-7-carboxamide] | 137 | N.I. | 0.0302 | 44.8 | 75.5 |  |  |  |  |
| CC(=O)Nc1csc2c(=O)n(Cc3ccccc3C#N)c(N3CCC[C@@H](N)C3)nc12 [Compound 86, (R)-N-(2-(3-aminopiperidin-1-yl)-3-(2-cyanobenzyl)-4-oxo-3,4-dihydrothieno-[3,2-d]pyrimidin-7-yl)acetamide] |  | N.I. | 0.0208 | 318 | 121 | N.I. |  |  |  |
| COC(=O)[C@H](Cc1ccccc1)NC(=O)c1cc2nc(N3CCC[C@@H](N)C3)n(Cc3ccccc3C#N)c(=O)c2s1 [Compound 102, (S)-methyl 2-(2-((R)-3-aminopiperidin-1-yl)-3-(2-cyanobenzyl)-4-oxo-3,4-dihydrothieno[3,2-d]pyrimidine-6-carboxamido)-3-phenylpropanoate] | 32.6 | N.I. | 0.0384 | 27.8 | 68.5 |  |  |  |  |
| CNC(=O)c1cc2nc(N3CCC[C@@H](N)C3)n(Cc3ccccc3C#N)c(=O)c2s1 [Compound 104, (R)-2-(3-aminopiperidin-1-yl)-3-(2-cyanobenzyl)-N-methyl-4-oxo-3,4-dihydrothieno[3,2-d]pyrimidine-6-carboxamide] | 254 | N.I. | 0.0171 |  | 239 |  | N.I. |  |  |
| CCNC(=O)c1cc2nc(N3CCC[C@@H](N)C3)n(Cc3ccccc3C#N)c(=O)c2s1 [Compound 113, (R)-2-(3-aminopiperidin-1-yl)-3-(2-cyanobenzyl)-N-ethyl-4-oxo-3,4-dihydrothieno[3,2-d]pyrimidine-6-carboxamide] | 303 | N.I. | 0.0187 | 166 | 173 |  |  |  |  |
| N#Cc1ccccc1Cn1c(N2CCC[C@@H](N)C2)nc2cc(COCc3ccccc3)sc2c1=O [Compound 94, (R)-2-((2-(3-aminopiperidin-1-yl)-6-((benzyloxy)methyl)-4-oxothieno-[3,2-d]pyrimidin-3(4H)-yl)methyl)-benzonitrile] | 55 | N.I. | 0.0104 | 34.2 | 96.8 |  |  |  |  |
| CC(=O)OCc1cc2nc(N3CCC[C@@H](N)C3)n(Cc3ccccc3C#N)c(=O)c2s1 [Compound 96, (R)-(2-(3-aminopiperidin-1-yl)-3-(2-cyanobenzyl)-4-oxo-3,4-dihydrothieno-[3,2-d]pyrimidin-6-yl)methyl acetate] |  | N.I. | 0.0116 |  |  | N.I. | N.I. | N.I. |  |
| CCCCNC(=O)c1cc2nc(N3CCC[C@@H](N)C3)n(Cc3ccccc3C#N)c(=O)c2s1 [Compound 117, (R)-2-(3-aminopiperidin-1-yl)-N-butyl-3-(2-cyanobenzyl)-4-oxo-3,4-dihydrothieno[3,2-d]pyrimidine-6-carboxamide] | 78.5 | N.I. | 0.016 | 63.2 | 118 |  |  |  |  |
| CC(C)CCNC(=O)c1cc2nc(N3CCC[C@@H](N)C3)n(Cc3ccccc3C#N)c(=O)c2s1 [Compound 121, (R)-2-(3-aminopiperidin-1-yl)-3-(2-cyanobenzyl)-N-isopentyl-4-oxo-3,4-dihydrothieno[3,2-d]pyrimidine-6-carboxamide] |  | N.I. | 0.0269 |  |  | N.I. | N.I. | N.I. |  |
| N#Cc1ccccc1Cn1c(N2CCC[C@@H](N)C2)nc2cc(C(=O)NC3CC3)sc2c1=O [Compound 40, (R)-2-(3-aminopiperidin-1-yl)-3-(2-cyanobenzyl)-N-cyclopropyl-4-oxo-3,4-dihydrothieno[3,2-d]pyrimidine-6-carboxamide] | 266 | N.I. | 0.0183 |  | 213 |  | N.I. |  |  |
| N#Cc1ccccc1Cn1c(N2CCC[C@@H](N)C2)nc2c(N)csc2c1=O [Compound 84, (R)-2-((7-amino-2-(3-aminopiperidin-1-yl)-4-oxothieno[3,2-d]pyrimidin-3(4H)-yl)methyl)benzonitriIe] |  | N.I. | 0.0242 | 62 | 91.3 | N.I. |  |  |  |
| N#Cc1ccccc1Cn1c(N2CCC[C@@H](N)C2)nc2cc(C(=O)NCC3CC3)sc2c1=O [Compound 106, (R)-2-(3-aminopiperidin-1-yl)-3-(2-cyanobenzyl)-N-(cyclopropylmethyl)-4-oxo-3,4-dihydrothieno[3,2-d]pyrimidine-6-carboxamide] | 127 | N.I. | 0.0183 | 76.2 | 117 |  |  |  |  |
| COC(=O)[C@@H](NC(=O)c1cc2nc(N3CCC[C@@H](N)C3)n(Cc3ccccc3C#N)c(=O)c2s1)C(C)C [Compound 100, (S)-methyl 2-(2-((R)-3-aminopiperidin-1-yl)-3-(2-cyanobenzyl)-4-oxo-3,4-dihydrothieno[3,2-d]pyrimidine-6-carboxamido)-3-methylbutanoate] | 117 | N.I. | 0.0283 | 43.1 | 119 |  |  |  |  |
| COC(=O)c1cc2nc(N3CCC[C@@H](N)C3)n(Cc3ccccc3C#N)c(=O)c2s1 [Compound 38, (R)-methyl 2-(3-aminopiperidin-1-yl)-3-(2-cyanobenzyl)-4-oxo-3,4-dihydrothieno[3,2-d]pyrimidine-6-carboxylate] |  | N.I. | 0.0115 |  |  | N.I. | N.I. | N.I. |  |
| N#Cc1ccccc1Cn1c(N2CCC[C@@H](N)C2)nc2c(CO)csc2c1=O [Compound 43, (R)-2-((2-(3-aminopiperidin-1-yl)-7-(hydroxymethyl)-4-oxothieno[3,2-d]-pyrimidin-3(4H)-yl)methyl)benzonitrile] |  | N.I. | 0.0189 |  |  | N.I. | N.I. | N.I. |  |
| COC(=O)C1CCN(Cc2csc3c(=O)n(Cc4ccccc4C#N)c(N4CCC[C@@H](N)C4)nc23)CC1 [Compound 54, (R)-methyl 1-((2-(3-aminopiperidin-1-yl)-3-(2-cyanobenzyl)-4-oxo-3,4-dihydrothieno[3,2-d]pyrimidin-7-yl)-methyl)piperidine-4-carboxylate] |  |  | 0.238 |  |  | N.I. | N.I. | N.I. | 39.2 |
| CCCCNC(=O)c1csc2c(=O)n(Cc3ccccc3C#N)c(N3CCC[C@@H](N)C3)nc12 [Compound 77, (R)-2-(3-aminopiperidln-1-yl)-N-butyl-3-(2-cyanobenzyl)-4-oxo-3,4-dihydrothieno[3,2-d]pyrimidine-7-carboxamide] |  |  | 0.0111 | 49.4 | 45.2 | N.I. |  |  | 30 |

Reference: US9045491B2, “Thienyl [3,2-D] pyrimidin-4-one compounds, preparation method, pharmaceutical compositions and use thereof” (SHANGHAI INSTITUTE OF MATERIA MEDICA, CHINESE ACADEMY OF …, priority 2011, dated 2015)
